Data on 30 compounds can be found in US20150284375A1 (AJINOMOTO CO., INC., priority 2012, published 2015).

The target in this assay is T1, human TRPA1 (Homo sapiens, UniProt O75762).
T1 construct: expressed in transfected cells; host or cells: Human embryonic kidney-derived 293T cells, transiently transfected with the pcDNA3.1/zeo(+) human TRPA1 plasmid
T1 sequence (O75762 whole entry): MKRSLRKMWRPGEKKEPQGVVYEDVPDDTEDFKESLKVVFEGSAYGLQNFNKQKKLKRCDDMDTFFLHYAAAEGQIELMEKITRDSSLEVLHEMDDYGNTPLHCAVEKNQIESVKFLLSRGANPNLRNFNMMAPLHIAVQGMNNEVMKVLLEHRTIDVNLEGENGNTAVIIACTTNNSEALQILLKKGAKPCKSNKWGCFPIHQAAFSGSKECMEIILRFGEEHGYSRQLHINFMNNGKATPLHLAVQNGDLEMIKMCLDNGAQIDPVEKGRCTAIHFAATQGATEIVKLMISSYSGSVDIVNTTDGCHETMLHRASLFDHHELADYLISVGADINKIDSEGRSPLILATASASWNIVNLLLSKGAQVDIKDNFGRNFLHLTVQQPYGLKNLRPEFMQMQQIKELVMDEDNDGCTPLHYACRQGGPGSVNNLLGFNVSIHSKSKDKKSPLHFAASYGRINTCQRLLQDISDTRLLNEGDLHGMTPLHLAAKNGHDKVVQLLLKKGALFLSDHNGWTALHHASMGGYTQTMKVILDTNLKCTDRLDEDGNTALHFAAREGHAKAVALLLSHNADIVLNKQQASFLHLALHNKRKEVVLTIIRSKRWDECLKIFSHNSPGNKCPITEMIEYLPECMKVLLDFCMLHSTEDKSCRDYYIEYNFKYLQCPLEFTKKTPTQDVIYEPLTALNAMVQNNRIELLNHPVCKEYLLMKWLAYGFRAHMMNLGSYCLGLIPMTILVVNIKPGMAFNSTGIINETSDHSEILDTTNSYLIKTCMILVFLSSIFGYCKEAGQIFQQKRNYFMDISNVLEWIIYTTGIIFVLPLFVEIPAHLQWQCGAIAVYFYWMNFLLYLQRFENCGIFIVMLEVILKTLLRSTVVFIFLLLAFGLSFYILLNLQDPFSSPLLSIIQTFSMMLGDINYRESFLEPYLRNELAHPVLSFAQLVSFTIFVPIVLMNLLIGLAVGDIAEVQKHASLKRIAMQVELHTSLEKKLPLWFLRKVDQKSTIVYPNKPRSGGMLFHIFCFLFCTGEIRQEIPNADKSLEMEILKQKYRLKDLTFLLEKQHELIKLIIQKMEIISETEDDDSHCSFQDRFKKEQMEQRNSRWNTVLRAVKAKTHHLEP
The experiment in a line: Measurement of TRPA1 antagonist activity (intracellular calcium increase, FLIPR, allylisothiocyanate stimulation). In kind it is cell-based. The settings on record: allylisothiocyanate 20 μM stimulation, FLIPR calcium assay; read-out: antagonism hTRPA1. A digest of the protocol:
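IC50 derives from a sigmoid fit of inhibition of the 5-min FLIPR fluorescence change evoked by 20 μM allylisothiocyanate, normalized between agonist and buffer responses. Test substance, diluted in HBSS/20 mM HEPES pH 7.2 plus 0.1% BSA, was applied 10 min beforehand at room temperature to Calcium4-loaded 293T cells transiently expressing human TRPA1.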
On to `O=C(NCc1cccc(OCc2ccc(C(F)(F)F)cc2)c1)[C@@H]1CCCCN1S(=O)(=O)c1ccc(F)cc1` [Example 175, (2S)-1-(4-fluorophenyl)sulfonyl-N-[[3-[[4-(trifluoromethyl)phenyl]methoxy]phenyl]methyl]piperidine-2-carboxamide], for which the IC50 amounted to 780 nM.

Turning to `O=C(NCc1cccc(OCc2ccc(C(F)(F)F)cc2)c1)[C@@H]1CCCN1S(=O)(=O)c1ccco1` [Example 176, (2S)-1-(2-furylsulfonyl)-N-[[3-[[4-(trifluoromethyl)phenyl]methoxy]phenyl]methyl]pyrrolidine-2-carboxamide], the IC50 is 36 nM.

As for `O=C(NCc1cccc(OCc2ccc(C(F)(F)F)cc2)c1)[C@@H]1CCCN1S(=O)(=O)c1ccoc1` [Example 177, (2S)-1-(3-furylsulfonyl)-N-[[3-[[4-(trifluoromethyl)phenyl]methoxy]phenyl]methyl]pyrrolidine-2-carboxamide], the IC50 stood at 27 nM.

For `O=C(NCc1cccc(OCc2ccc(C(F)(F)F)cc2)c1)[C@@H]1CCCN1S(=O)(=O)c1ccsc1` [Example 178, (2S)-1-(3-thienylsulfonyl)-N-[[3-[[4-(trifluoromethyl)phenyl]methoxy]phenyl]methyl]pyrrolidine-2-carboxamide], the IC50 was 8.6 nM.

Regarding `O=C(NCc1cccc(OCc2ccc(C(F)(F)F)cc2)c1)[C@@H]1[C@@H](O)CCN1S(=O)(=O)c1ccco1` [Example 179, (2S,3S)-1-(2-furylsulfonyl)-3-hydroxy-N-[[3-[[4-(trifluoromethyl)phenyl]methoxy]phenyl]methyl]pyrrolidine-2-carboxamide], the IC50 amounted to 600 nM.

Consider `O=C(NCc1cccc(OCc2ccc(C(F)(F)F)cc2)c1)[C@@H]1C[C@@H](O)CN1S(=O)(=O)c1ccco1` [Example 180, (2S,4R)-1-(2-furylsulfonyl)-4-hydroxy-N-[[3-[[4-(trifluoromethyl)phenyl]methoxy]phenyl]methyl]pyrrolidine-2-carboxamide], for which the IC50 stood at 1300 nM.

Consider `O=C(NCc1cccc(OCc2ccccc2)c1)[C@@H]1CCCN1S(=O)(=O)c1ccco1` [Example 181, (2S)-N-[(3-benzyloxyphenyl)methyl]-1-(2-furylsulfonyl)pyrrolidine-2-carboxamide], for which the IC50 stood at 100 nM.

Turning to `O=C(NCc1cccc(OCc2ccccc2)c1)[C@@H]1C=CCN1S(=O)(=O)c1ccco1` [Example 182, (2S)-N-[(3-benzyloxyphenyl)methyl]-1-(2-furylsulfonyl)-2,5-dihydropyrrole-2-carboxamide], the IC50 turned out to be 83 nM.

Take `O=C(NCc1cccc(Oc2ccc(C(F)(F)F)cc2)c1)[C@@H]1CCCN1S(=O)(=O)c1nccs1` [Example 183, (2S)-1-thiazol-2-ylsulfonyl-N-[[3-[4-(trifluoromethyl)phenoxy]phenyl]methyl]pyrrolidine-2-carboxamide]: the IC50 was 3300 nM.

In the case of `O=C(NCc1cccc(OCc2ccc(C(F)(F)F)cc2)c1)[C@@H]1CCCN1S(=O)(=O)c1nccs1` [Example 184, (2S)-1-thiazol-2-ylsulfonyl-N-[[3-[[4-(trifluoromethyl)phenyl]methoxy]phenyl]methyl]pyrrolidine-2-carboxamide], the IC50 is 980 nM.

For `N#Cc1ccc(S(=O)(=O)N2CCC[C@H]2C(=O)NCc2cccc(OCc3ccc(C(F)(F)F)cc3)c2)cc1` [Example 185, (2S)-1-(4-cyanophenyl)sulfonyl-N-[[3-[[4-(trifluoromethyl)phenyl]methoxy]phenyl]methyl]pyrrolidine-2-carboxamide], the IC50 turned out to be 240 nM.

As for `O=C(NCc1cccc(Oc2ccc(C(F)(F)F)cc2)c1)[C@@H]1CCCN1S(=O)(=O)c1cccc(F)c1` [Example 186, (2S)-1-(3-fluorophenyl)sulfonyl-N-[[3-[4-(trifluoromethyl)phenoxy]phenyl]methyl]pyrrolidine-2-carboxamide], the IC50 came out at 71 nM.

On to `O=C(NCc1cccc(Oc2ccc(C(F)(F)F)cc2)c1)[C@@H]1CCCN1S(=O)(=O)c1ccc(F)c(F)c1` [Example 187, (2S)-1-(3,4-difluorophenyl)sulfonyl-N-[[3-[4-(trifluoromethyl)phenoxy]phenyl]methyl]pyrrolidine-2-carboxamide], for which the IC50 came to 60 nM.

In the case of `O=C(NCc1cccc(Oc2ccc(C(F)(F)F)cc2)c1)[C@@H]1CCCN1S(=O)(=O)c1cc(F)cc(F)c1` [Example 188, (2S)-1-(3,5-difluorophenyl)sulfonyl-N-[[3-[4-(trifluoromethyl)phenoxy]phenyl]methyl]pyrrolidine-2-carboxamide], the IC50 worked out at 100 nM.

On to `O=C(NCc1cccc(Oc2ccc(C(F)(F)F)cc2)c1)[C@@H]1CCCN1S(=O)(=O)c1ccco1` [Example 189, (2S)-1-(2-furylsulfonyl)-N-[[3-[4-(trifluoromethyl)phenoxy]phenyl]methyl]pyrrolidine-2-carboxamide], for which the IC50 was found to be 100 nM.

For `O=C(NCc1cccc(Oc2ccc(C(F)(F)F)cc2)c1)[C@@H]1CCCN1S(=O)(=O)c1ccsc1` [Example 190, (2S)-1-(3-thienylsulfonyl)-N-[[3-[4-(trifluoromethyl)phenoxy]phenyl]methyl]pyrrolidine-2-carboxamide], the IC50 came out at 35 nM.

In the case of `O=C(NCc1cccc(OCc2ccc(C(F)(F)F)cc2)c1)[C@@H]1CCCN1S(=O)(=O)c1ccccc1` [Example 191, (2S)-1-(benzenesulfonyl)-N-[[3-[[4-(trifluoromethyl)phenyl]methoxy]phenyl]methyl]pyrrolidine-2-carboxamide], the IC50 was determined as 66 nM.

For `O=C(NCc1cccc(OCc2ccc(C(F)(F)F)cc2)c1)[C@@H]1CCCN1S(=O)(=O)c1cccc(F)c1` [Example 192, (2S)-1-(3-fluorophenyl)sulfonyl-N-[[3-[[4-(trifluoromethyl)phenyl]methoxy]phenyl]methyl]pyrrolidine-2-carboxamide], the IC50 came to 49 nM.

In the case of `O=C(NCc1cccc(OCc2ccc(C(F)(F)F)cc2)c1)[C@@H]1CCCN1S(=O)(=O)c1cccc(Cl)c1` [Example 193, (2S)-1-(3-chlorophenyl)sulfonyl-N-[[3-[[4-(trifluoromethyl)phenyl]methoxy]phenyl]methyl]pyrrolidine-2-carboxamide], the IC50 turned out to be 260 nM.

For the compound `N#Cc1cccc(S(=O)(=O)N2CCC[C@H]2C(=O)NCc2cccc(OCc3ccc(C(F)(F)F)cc3)c2)c1` [Example 194, (2S)-1-(3-cyanophenyl)sulfonyl-N-[[3-[[4-(trifluoromethyl)phenyl]methoxy]phenyl]methyl]pyrrolidine-2-carboxamide], the IC50 worked out at 1100 nM.

On to `CC(=O)c1ccc(S(=O)(=O)N2CCC[C@H]2C(=O)NCc2cccc(OCc3ccc(C(F)(F)F)cc3)c2)cc1` [Example 195, (2S)-1-(4-acetylphenyl)sulfonyl-N-[[3-[[4-(trifluoromethyl)phenyl]methoxy]phenyl]methyl]pyrrolidine-2-carboxamide], for which the IC50 was 1700 nM.

On to `COc1ccc(S(=O)(=O)N2CCC[C@H]2C(=O)NCc2cccc(OCc3ccc(C(F)(F)F)cc3)c2)cc1` [Example 196, (2S)-1-(4-methoxyphenyl)sulfonyl-N-[[3-[[4-(trifluoromethyl)phenyl]methoxy]phenyl]methyl]pyrrolidine-2-carboxamide], for which the IC50 was 640 nM.

Consider `COc1cccc(S(=O)(=O)N2CCC[C@H]2C(=O)NCc2cccc(OCc3ccc(C(F)(F)F)cc3)c2)c1` [Example 197, (2S)-1-(3-methoxyphenyl)sulfonyl-N-[[3-[[4-(trifluoromethyl)phenyl]methoxy]phenyl]methyl]pyrrolidine-2-carboxamide], for which the IC50 came to 1700 nM.

In the case of `COc1ccccc1S(=O)(=O)N1CCC[C@H]1C(=O)NCc1cccc(OCc2ccc(C(F)(F)F)cc2)c1` [Example 198, (2S)-1-(2-methoxyphenyl)sulfonyl-N-[[3-[[4-(trifluoromethyl)phenyl]methoxy]phenyl]methyl]pyrrolidine-2-carboxamide], the IC50 is 3900 nM.

With `O=C(NCc1cccc(OCc2ccc(C(F)(F)F)cc2)c1)[C@@H]1CCCN1S(=O)(=O)c1ccc(OC(F)F)cc1` [Example 199, (2S)-1-[4-(difluoromethoxy)phenyl]sulfonyl-N-[[3-[[4-(trifluoromethyl)phenyl]methoxy]phenyl]methyl]pyrrolidine-2-carboxamide], the IC50 stood at 2200 nM.

Turning to `O=C(NCc1cccc(OCc2ccc(C(F)(F)F)cc2)c1)[C@@H]1CCCN1S(=O)(=O)c1cccs1` [Example 200, (2S)-1-(2-thienylsulfonyl)-N-[[3-[[4-(trifluoromethyl)phenyl]methoxy]phenyl]methyl]pyrrolidine-2-carboxamide], the IC50 is 60 nM.

In the case of `O=C(NCc1cccc(OCc2ccc(C(F)(F)F)cc2)c1)[C@@H]1CCCN1S(=O)(=O)c1cccnc1` [Example 201, (2S)-1-(3-pyridylsulfonyl)-N-[[3-[[4-(trifluoromethyl)phenyl]methoxy]phenyl]methyl]pyrrolidine-2-carboxamide], the IC50 was found to be 120 nM.

Take `O=C(NCc1cccc(OCc2ccc(C(F)(F)F)cc2)c1)[C@@H]1CCCN1S(=O)(=O)c1ccccn1` [Example 202, (2S)-1-(2-pyridylsulfonyl)-N-[[3-[[4-(trifluoromethyl)phenyl]methoxy]phenyl]methyl]pyrrolidine-2-carboxamide]: the IC50 was found to be 400 nM.

In the case of `Cc1ccc(S(=O)(=O)N2CCC[C@H]2C(=O)NCc2cccc(OCc3ccc(C(F)(F)F)cc3)c2)o1` [Example 203, (2S)-1-[(5-methyl-2-foryl)sulfonyl]-N-[[3-[[4-(trifluoromethyl)phenyl]methoxy]phenyl]methyl]pyrrolidine-2-carboxamide], the IC50 came to 170 nM.

Regarding `Cc1sccc1S(=O)(=O)N1CCC[C@H]1C(=O)NCc1cccc(OCc2ccc(C(F)(F)F)cc2)c1` [Example 204, (2S)-1-[(2-methyl-3-thienyl)sulfonyl]-N-[[3-[[4-(trifluoromethyl)phenyl]methoxy]phenyl]methyl]pyrrolidine-2-carboxamide], the IC50 turned out to be 1000 nM.
